Literature values as cited in patent publication US12370144B2, “Centanafadine pharmaceutical formulations, and methods of making and using same” (OTSUKA PHARMACEUTICAL CO., LTD., priority 2021, dated 2025).

Legend:
[1] = target: dopamine reuptake transporter (DAT) (Homo sapiens, UniProt Q01959); settings: fraction of the potency towards NET
[2] = not told
[3] = target: serotonin reuptake transporter (SERT) (Homo sapiens, UniProt P31645); settings: fraction of the potency towards NET
[4] = target: norepinephrine reuptake transporter (NET) (Homo sapiens, UniProt P23975); settings: triple reuptake inhibitor, rank of potency
Sequence of norepinephrine reuptake transporter (NET) (P23975 whole entry): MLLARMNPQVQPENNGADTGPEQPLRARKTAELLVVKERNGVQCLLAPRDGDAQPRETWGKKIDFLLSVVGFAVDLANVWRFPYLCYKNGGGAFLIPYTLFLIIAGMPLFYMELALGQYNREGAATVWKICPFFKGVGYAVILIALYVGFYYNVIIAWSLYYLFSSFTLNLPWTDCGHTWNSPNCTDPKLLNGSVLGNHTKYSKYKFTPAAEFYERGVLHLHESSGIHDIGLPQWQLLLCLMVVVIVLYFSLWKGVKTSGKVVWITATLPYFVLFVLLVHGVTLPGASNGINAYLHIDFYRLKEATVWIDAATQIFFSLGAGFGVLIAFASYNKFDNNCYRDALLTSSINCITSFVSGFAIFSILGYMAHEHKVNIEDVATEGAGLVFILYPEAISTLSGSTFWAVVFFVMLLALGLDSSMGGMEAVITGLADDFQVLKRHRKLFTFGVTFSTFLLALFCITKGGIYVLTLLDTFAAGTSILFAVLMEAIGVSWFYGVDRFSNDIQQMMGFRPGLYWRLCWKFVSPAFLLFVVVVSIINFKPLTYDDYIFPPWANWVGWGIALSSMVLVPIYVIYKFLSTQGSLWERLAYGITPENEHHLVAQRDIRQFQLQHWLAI

Sequence of serotonin reuptake transporter (SERT) (P31645 whole entry, species assumed): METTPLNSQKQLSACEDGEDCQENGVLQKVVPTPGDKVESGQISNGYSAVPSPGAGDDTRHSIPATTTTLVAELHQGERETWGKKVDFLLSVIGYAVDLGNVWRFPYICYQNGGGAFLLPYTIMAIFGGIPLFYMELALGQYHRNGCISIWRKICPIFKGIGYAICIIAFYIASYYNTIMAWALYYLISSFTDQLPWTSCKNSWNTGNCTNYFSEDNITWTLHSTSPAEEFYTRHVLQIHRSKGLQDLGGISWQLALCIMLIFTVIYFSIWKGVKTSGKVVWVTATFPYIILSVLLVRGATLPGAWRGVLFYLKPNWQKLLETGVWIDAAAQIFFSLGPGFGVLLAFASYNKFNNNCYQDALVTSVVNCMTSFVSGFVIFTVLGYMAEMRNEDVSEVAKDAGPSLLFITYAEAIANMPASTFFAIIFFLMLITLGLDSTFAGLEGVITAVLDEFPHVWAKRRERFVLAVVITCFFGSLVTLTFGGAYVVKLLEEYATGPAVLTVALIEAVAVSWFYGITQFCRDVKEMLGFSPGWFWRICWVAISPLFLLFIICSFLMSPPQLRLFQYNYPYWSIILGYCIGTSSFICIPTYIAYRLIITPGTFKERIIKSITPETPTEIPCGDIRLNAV
Sequence of dopamine reuptake transporter (DAT) (Q01959 whole entry, species assumed): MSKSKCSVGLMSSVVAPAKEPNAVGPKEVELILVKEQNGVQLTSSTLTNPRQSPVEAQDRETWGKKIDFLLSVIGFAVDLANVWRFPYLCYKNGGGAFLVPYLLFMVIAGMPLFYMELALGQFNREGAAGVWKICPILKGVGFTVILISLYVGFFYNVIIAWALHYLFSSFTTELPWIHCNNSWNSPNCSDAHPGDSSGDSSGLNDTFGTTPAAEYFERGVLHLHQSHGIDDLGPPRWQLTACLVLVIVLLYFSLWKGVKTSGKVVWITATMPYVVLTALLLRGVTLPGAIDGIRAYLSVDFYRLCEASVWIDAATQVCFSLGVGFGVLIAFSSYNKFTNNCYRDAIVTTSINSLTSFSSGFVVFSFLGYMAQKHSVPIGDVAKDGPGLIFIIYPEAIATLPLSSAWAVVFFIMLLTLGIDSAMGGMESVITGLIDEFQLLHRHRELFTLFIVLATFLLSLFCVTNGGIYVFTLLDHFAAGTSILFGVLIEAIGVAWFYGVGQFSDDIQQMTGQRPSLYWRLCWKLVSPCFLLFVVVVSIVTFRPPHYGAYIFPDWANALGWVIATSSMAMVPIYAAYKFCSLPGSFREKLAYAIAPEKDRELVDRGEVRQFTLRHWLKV

SMILES: c1ccc2cc([C@]34CNC[C@H]3C4)ccc2c1 [centanafadine, (1R,5S)-1-(naphthalen-2-yl)-3-azabicyclo[3.1.0]hexane]
- Potency towards DAT relative to NET [1]: one-sixth
- Permeability [2]: highly permeable
- Potency towards SERT relative to NET [3]: one-fourteenth
- Potency towards NET [4]: most potency
